Source: US10947216B2, “Amide compounds and method for making and using” (Rigel Pharmaceuticals, Inc., priority 2016, dated 2021)
Where a name gives a salt, the structure may show the parent alone.

How the values were obtained:
IL-23p19 = experiment: LPS Induced IL23p19 in THP-1 Cells (with IFNγ Primed) Assay; assay type: cell-based, human; settings: Homo sapiens, THP-1, THP-1 cells, IFNγ (50 ng/mL) primed, 1 hour compound pre-incubation, LPS 1 ug/mL 18 hours, 10 pt; read-out: IL23-p19 ELISA, THP1-IFNy, LPS, 10 pt EC50
How it was run: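 THP-1 cells (50K/well) primed ~18 h with IFNγ (50 ng/mL) in RPMI/10% FBS, then incubated with compound in duplicate for 18 h at 37° C. Supernatant IL-23p19 measured by chemiluminescent sandwich ELISA, giving EC50 by curve fitting. Toxicity assessed in parallel on the remaining cells by Cell Titer Glo.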

IL-23 (p19/p40) = experiment: IL23-p19 ELISA, dendritic cells (DC differentiated from human PBMC, IFNγ primed), LPS stimulated; assay type: cell-based; settings: Dendritic cell, human PBMC-derived dendritic cells, 1 h compound pre-incubation, LPS 1 μg/ml 18 hours, 10 pt
How it was run: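 PBMC-derived DCs (GM-CSF 100 ng/ml + IL-4 20 ng/ml, 7 days) primed 24 h with IFNγ 50 ng/ml, 50K cells/well; compound pre-incubated 1 h at 37° C, then LPS, 18 h. Supernatant IL-23 by p19-capture/p40-detection chemiluminescent ELISA; cytotoxicity by Cell Titer Glo.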

Row | EC50 (IL-23p19) | EC50 (IL-23 (p19/p40)) | SMILES
1 | 4240 nM | 5900 nM | COCCOCCn1cc(NC(=O)c2cccc(-c3ccnc(C)c3)n2)c(-c2ccccn2)n1 [Compound I-146, N-(1-(2-(2-methoxyethoxy)ethyl)-3-(pyridin-2-yl)-1H-pyrazol-4-yl)-2′-methyl-[2,4′-bipyridine]-6-carboxamide formate]
2 | 169 nM | 34.7 nM | Cn1cc(NC(=O)c2cccc(-c3cncc(N)c3)n2)c(-c2ccccn2)n1 [Compound I-25, 5′-amino-N-(1-methyl-3-(pyridin-2-yl)-1H-pyrazol-4-yl)-[2,3′-bipyridine]-6-carboxamide]
3 | 4010 nM | 5060 nM | Cn1cc(NC(=O)c2ccnc(-c3cn[nH]c3)n2)c(-c2ccccn2)n1 [Compound I-137, N-(1-methyl-3-(pyridin-2-yl)-1H-pyrazol-4-yl)-2-(1H-pyrazol-4-yl)pyrimidine-4-carboxamide]
4 | 21700 nM | 12200 nM | Cc1cncc(-c2cccc(C(=O)Nc3cn(C)nc3-c3ccc(N4CCN(C)CC4)cn3)n2)c1 [Compound I-177, 5′-methyl-N-(1-methyl-3-(5-(4-methylpiperazin-1-yl)pyridin-2-yl)-1H-pyrazol-4-yl)-[2,3′-bipyridine]-6-carboxamide dihydrochloride]
5 | 7880 nM | 4120 nM | COCCOCCn1cc(NC(=O)c2cccc(-c3ccoc3)n2)c(-c2ccccn2)n1 [Compound I-151, 6-(furan-3-yl)-N-(1-(2-(2-methoxyethoxy)ethyl)-3-(pyridin-2-yl)-1H-pyrazol-4-yl)picolinamide 2,2,2-trifluoroacetate]
6 | 7020 nM | 342 nM | Cn1cc(NC(=O)c2cccc(-c3cncc(NC4CC4)c3)n2)c(-c2ccccn2)n1 [Compound I-27, 5′-(cyclopropylamino)-N-(1-methyl-3-(pyridin-2-yl)-1H-pyrazol-4-yl)-[2,3′-bipyridine]-6-carboxamide]
7 | 4920 nM | 6510 nM | COCCOCCn1cc(NC(=O)c2cccc(Nc3ccc4[nH]ncc4c3)n2)c(-c2ccccn2)n1 [Compound I-154, 6-((1H-indazol-5-yl)amino)-N-(1-(2-(2-methoxyethoxy)ethyl)-3-(pyridin-2-yl)-1H-pyrazol-4-yl)picolinamide formate]
8 | 1200 nM | 1420 nM | COCCOCCn1cc(NC(=O)c2cccc(-c3cncc(C)c3)n2)c(-c2ccccn2)n1 [Compound I-149, N-(1-(2-(2-methoxyethoxy)ethyl)-3-(pyridin-2-yl)-1H-pyrazol-4-yl)-5′-methyl-[2,3′-bipyridine]-6-carboxamide formate]
9 | 6350 nM | 1200 nM | Cc1ccc(-c2cccc(C(=O)Nc3cn(C)nc3-c3ccccn3)n2)cn1 [Compound I-16, 6′-methyl-N-(1-methyl-3-(pyridin-2-yl)-1H-pyrazol-4-yl)-[2,3′-bipyridine]-6-carboxamide]
10 | 300 nM | 415 nM | COc1ccc(-c2nn(C)cc2NC(=O)c2cccc(-c3cncc(NC(C)C)c3)n2)nc1 [Compound I-71, 5′-(isopropylamino)-N-(3-(5-methoxypyridin-2-yl)-1-methyl-1H-pyrazol-4-yl)-[2,3′-bipyridine]-6-carboxamide]
11 | 1770 nM | 2160 nM | Cn1cc(NC(=O)c2cccc(-c3cn[nH]c3)n2)c(N2CCCCC2)n1 [Compound I-73, N-(1-methyl-3-(piperidin-1-yl)-1H-pyrazol-4-yl)-6-(1H-pyrazol-4-yl)picolinamide]
12 | 212 nM | 142 nM | O=C(Nc1cn(C2COC2)nc1-c1ccccn1)c1cccc(-c2cn[nH]c2)n1 [Compound I-116, N-(1-(oxetan-3-yl)-3-(pyridin-2-yl)-1H-pyrazol-4-yl)-6-(1H-pyrazol-4-yl)picolinamide]
13 | 6160 nM | 2410 nM | COCCOCCn1cc(NC(=O)c2cccc(Nc3ccc4n[nH]cc4c3)n2)c(-c2ccccn2)n1 [Compound I-155, 6-((2H-indazol-5-yl)amino)-N-(1-(2-(2-methoxyethoxy)ethyl)-3-(pyridin-2-yl)-1H-pyrazol-4-yl)picolinamide formate]
14 | 761 nM | 2540 nM | COCCOCCn1cc(NC(=O)c2cccc(-c3ccc(N)nc3)n2)c(-c2ccccn2)n1 [Compound I-142, 6′-amino-N-(1-(2-(2-methoxyethoxy)ethyl)-3-(pyridin-2-yl)-1H-pyrazol-4-yl)-[2,3′-bipyridine]-6-carboxamide formate]
15 | 16400 nM | 910 nM | Cn1cc(NC(=O)c2cccc(-c3cncc(NC(C)(C)C)c3)n2)c(-c2ccccn2)n1 [Compound I-29, 5′-(tert-butylamino)-N-(1-methyl-3-(pyridin-2-yl)-1H-pyrazol-4-yl)-[2,3′-bipyridine]-6-carboxamide]
16 | 533 nM | 354 nM | Cc1cc(-c2cccc(C(=O)Nc3cn(C)nc3-c3ccccn3)n2)[nH]n1 [Compound I-7, 6-(3-methyl-1H-pyrazol-5-yl)-N-(1-methyl-3-(pyridin-2-yl)-1H-pyrazol-4-yl)picolinamide]
17 | 1760 nM | 2330 nM | Cc1cncc(-c2cccc(C(=O)Nc3cn(C4COC4)nc3-c3ccccn3)n2)c1 [Compound I-114, 5′-methyl-N-(1-(oxetan-3-yl)-3-(pyridin-2-yl)-1H-pyrazol-4-yl)-[2,3′-bipyridine]-6-carboxamide]
18 | 1930 nM | 4320 nM | Cc1cncc(-c2cccc(C(=O)Nc3cn(C)nc3N3CCCCC3)n2)c1 [Compound I-76, 5′-methyl-N-(1-methyl-3-(piperidin-1-yl)-1H-pyrazol-4-yl)-[2,3′-bipyridine]-6-carboxamide]
19 | 469 nM | 198 nM | Cc1cc(-c2cccc(C(=O)Nc3cn(C4COC4)nc3-c3ccccn3)n2)[nH]n1 [Compound I-136, 6-(3-methyl-1H-pyrazol-5-yl)-N-(1-(oxetan-3-yl)-3-(pyridin-2-yl)-1H-pyrazol-4-yl)picolinamide]
20 | 19500 nM | 7070 nM | CN1CCN(c2ccc(-c3nn(C)cc3NC(=O)c3cccc(-c4cn[nH]c4)n3)nc2)CC1 [Compound I-174, N-(1-methyl-3-(5-(4-methylpiperazin-1-yl)pyridin-2-yl)-1H-pyrazol-4-yl)-6-(1H-pyrazol-4-yl)picolinamide]
21 | 8430 nM | 2840 nM | COCCOCCn1cc(NC(=O)c2cccc(-c3ccnc(OC)c3)n2)c(-c2ccccn2)n1 [Compound I-141, 2′-methoxy-N-(1-(2-(2-methoxyethoxy)ethyl)-3-(pyridin-2-yl)-1H-pyrazol-4-yl)-[2,4′-bipyridine]-6-carboxamide formate]
22 | 6620 nM | 12800 nM | O=C(Nc1cn(C2COC2)nc1-c1ccccn1)c1cccc(-c2cncc(F)c2)n1 [Compound I-131, 5′-fluoro-N-(1-(oxetan-3-yl)-3-(pyridin-2-yl)-1H-pyrazol-4-yl)-[2,3′-bipyridine]-6-carboxamide]
23 | 250 nM | 106 nM | Cc1cncc(-c2cccc(C(=O)Nc3cn(C)nc3-c3ccccn3)n2)c1 [Compound I-12, 5′-methyl-N-(1-methyl-3-(pyridin-2-yl)-1H-pyrazol-4-yl)-[2,3′-bipyridine]-6-carboxamide]
24 | 281 nM | 178 nM | Cn1cc(NC(=O)c2cccc(-c3cn[nH]c3)n2)c(-c2ccccn2)n1 [Compound I-9, N-(1-methyl-3-(pyridin-2-yl)-1H-pyrazol-4-yl)-6-(1H-pyrazol-4-yl)picolinamide]
25 | 1200 nM | 1500 nM | COc1ccc(-c2nn(C)cc2NC(=O)c2cccc(-c3cncc(C)c3)n2)nc1 [Compound I-69, N-(3-(5-methoxypyridin-2-yl)-1-methyl-1H-pyrazol-4-yl)-5′-methyl-[2,3′-bipyridine]-6-carboxamide]
26 | 1370 nM | 2890 nM | Cc1cncc(-c2cccc(C(=O)Nc3cn(C4CCOCC4)nc3-c3ccccn3)n2)c1 [Compound I-164, 5′-methyl-N-(3-(pyridin-2-yl)-1-(tetrahydro-2H-pyran-4-yl)-1H-pyrazol-4-yl)-[2,3′-bipyridine]-6-carboxamide]
27 | 9010 nM | 6840 nM | CN1CCN(c2ccc(-c3nn(C)cc3NC(=O)c3cccc(-c4cc[nH]n4)n3)nc2)CC1 [Compound I-175, N-(1-methyl-3-(5-(4-methylpiperazin-1-yl)pyridin-2-yl)-1H-pyrazol-4-yl)-6-(1H-pyrazol-3-yl)picolinamide]
28 | 3160 nM | 1020 nM | Cn1cc(NC(=O)c2cccc(-c3cncc(NCC(F)(F)F)c3)n2)c(-c2ccccn2)n1 [Compound I-33, N-(1-methyl-3-(pyridin-2-yl)-1H-pyrazol-4-yl)-5′-((2,2,2-trifluoroethyl)amino)-[2,3′-bipyridine]-6-carboxamide]
29 | 371 nM | 1060 nM | COC1CC(n2cc(NC(=O)c3cccc(-c4cn[nH]c4)n3)c(-c3ccccn3)n2)C1 (stereo not drawn) [Compound I-163, N-(1-(3-methoxycyclobutyl)-3-(pyridin-2-yl)-1H-pyrazol-4-yl)-6-(1H-pyrazol-4-yl)picolinamide formate]
30 | 1110 nM | 878 nM | CN(C)c1cncc(-c2cccc(C(=O)Nc3cn(C)nc3-c3ccccn3)n2)c1 [Compound I-35, 5′-(dimethylamino)-N-(1-methyl-3-(pyridin-2-yl)-1H-pyrazol-4-yl)-[2,3′-bipyridine]-6-carboxamide]
